According to patent US10385019B2, “Inhibitors of EGFR and methods of use thereof” (Dana-Farber Cancer Institute, Inc., priority 2015, dated 2019):
Read-outs that look alike come from different tables or passages of the source.

Tests used:
Assay in all cases: Ba/F3 cell proliferation model
Format in all cases: cell-based, murine
[1] = biological target: EGFR T790M/L858R Ba/F3 cell line (Homo sapiens, UniProt P00533, T790M/L858R, cells depend on it); conditions: for Activity (% inhibition): combined with cetuximab (% cetuximab, 1.0 μM drug concentration with 1.0 μg/mL cetuximab)
Summary of the method: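 Murine Ba/F3 cells made IL-3-independent by retroviral EGFR L858R/T790M, selected in puromycin (2 μg/ml) and kept in RPMI 1640 with 10% FBS. Cells were exposed to serially diluted compound for 72 h, with growth read by MTS assay in six wells per point and ≥3 repeats. Sigmoidal dose-response non-linear regression gave the values.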

[2] = biological target: Del/T790M Ba/F3 cell line (Homo sapiens, UniProt P00533, DEL746-750/T790M, cells depend on it)
Text: (§1) The selectivity between wild-type EGFR and EGFR containing one or more mutations as described herein can also be measured using cellular proliferation assays where cell proliferation is dependent on kinase activity. For example, murine Ba/F3 cells transfected with a suitable version of wild-type EGFR (such as VIII; containing a WT EGFR kinase domain), or Ba/F3 cells transfected with L858R/T790M, Del/T790M/L718Q, L858R/T790M/L718Q, L858R/T790M/C797S, Del/T790M/C797S, L858R/T790M/I941R, or Exon 19 deletion/T790M can be used.
(§2) Cell lines are plated in media. The compounds of the present disclosure are then serially diluted and transferred to the cells. Cell viability is measured via a luminescent readout. Data is analyzed by non-linear regression curve-fitting.
(§3) The EGFR mutant L858R, Del E746_A750, L858R/T790M, DelE746_A750/T790M, L858R/T790M/C797S and Del/T790M/C797S Ba/F3 cells have been previously described (Zhou, W., Ercan, D., Chen, L., Yun, C. H., Li, D., Capelletti, M., Cortot, A. B., Chirieac, L., Iacob, R. E., Padera, R., et al. “Novel mutant-selective EGFR kinase inhibitors against EGFR T790M,” Nature 462, (2009), 1070-1074). All cell lines were maintained in RPMI 1640 (Cellgro; Mediatech Inc., Herndon, Calif.) supplemented with 10% FBS 100 units/mL penicillin, 100 units/mL streptomycin, and 2 mM glutamine. L858R cells were maintained in ACL-4 media (Invitrogen, Carlsbad, Calif.) supplemented with 5% FBS, 100 units/mL penicillin, 100 units/mL streptomycin, and 2 mM glutamine. The EGFR I941R mutation was introduced via site directed mutagenesis using the Quick Change Site-Directed Mutagenesis kit (Stratagene; La Jolla, Calif.) according to the manufacturer's instructions. All constructs were confirmed by DNA sequencing. The constructs were shuttled into the retroviral vector JP 1540 using the BD Creator™ System (BD Biosciences). Ba/F3 cells were infected with retrovirus and according to standard protocols, as described previously (Zhou et al, Nature 2009). Stable clones were obtained by selection in puromycin (2 μg/ml).
(§4) Growth and inhibition of growth was assessed by MTS assay and was performed according to previously established methods (Zhou et al., Nature 2009). The MTS assay is a colorimetric method for determining the number of viable cells that is based on the bioreduction of MTS by cells to a formazan product that is soluble in cell culture medium and can be detected spectrophotometrically. Ba/F3 cells of different EGFR genotypes were exposed to treatment for 72 hours and the number of cells used per experiment determined empirically and has been previously established (Zhou et al., Nature 2009). All experimental points were set up in six wells and all experiments were repeated at least three times. […] The curves were fitted using a non-linear regression model with a sigmoidal dose response.

[3] = system: EGFR Parental Ba/F3 cell line; conditions: Mus musculus, BaF3; compound alone
Text: as §1, §2, §3, §4

[4] = compound alone, read-out: L858R/T790M IC50
[5] = read-out: L858R/T790M Cetuximab IC50, in combination with Cetuximab
[6] = compound alone, read-out: Del/T790M IC50
[7] = read-out: Del/T790M Cetuximab IC50, in combination with Cetuximab

Sequence of EGFR T790M/L858R Ba/F3 cell line (P00533 whole entry T790M/L858R): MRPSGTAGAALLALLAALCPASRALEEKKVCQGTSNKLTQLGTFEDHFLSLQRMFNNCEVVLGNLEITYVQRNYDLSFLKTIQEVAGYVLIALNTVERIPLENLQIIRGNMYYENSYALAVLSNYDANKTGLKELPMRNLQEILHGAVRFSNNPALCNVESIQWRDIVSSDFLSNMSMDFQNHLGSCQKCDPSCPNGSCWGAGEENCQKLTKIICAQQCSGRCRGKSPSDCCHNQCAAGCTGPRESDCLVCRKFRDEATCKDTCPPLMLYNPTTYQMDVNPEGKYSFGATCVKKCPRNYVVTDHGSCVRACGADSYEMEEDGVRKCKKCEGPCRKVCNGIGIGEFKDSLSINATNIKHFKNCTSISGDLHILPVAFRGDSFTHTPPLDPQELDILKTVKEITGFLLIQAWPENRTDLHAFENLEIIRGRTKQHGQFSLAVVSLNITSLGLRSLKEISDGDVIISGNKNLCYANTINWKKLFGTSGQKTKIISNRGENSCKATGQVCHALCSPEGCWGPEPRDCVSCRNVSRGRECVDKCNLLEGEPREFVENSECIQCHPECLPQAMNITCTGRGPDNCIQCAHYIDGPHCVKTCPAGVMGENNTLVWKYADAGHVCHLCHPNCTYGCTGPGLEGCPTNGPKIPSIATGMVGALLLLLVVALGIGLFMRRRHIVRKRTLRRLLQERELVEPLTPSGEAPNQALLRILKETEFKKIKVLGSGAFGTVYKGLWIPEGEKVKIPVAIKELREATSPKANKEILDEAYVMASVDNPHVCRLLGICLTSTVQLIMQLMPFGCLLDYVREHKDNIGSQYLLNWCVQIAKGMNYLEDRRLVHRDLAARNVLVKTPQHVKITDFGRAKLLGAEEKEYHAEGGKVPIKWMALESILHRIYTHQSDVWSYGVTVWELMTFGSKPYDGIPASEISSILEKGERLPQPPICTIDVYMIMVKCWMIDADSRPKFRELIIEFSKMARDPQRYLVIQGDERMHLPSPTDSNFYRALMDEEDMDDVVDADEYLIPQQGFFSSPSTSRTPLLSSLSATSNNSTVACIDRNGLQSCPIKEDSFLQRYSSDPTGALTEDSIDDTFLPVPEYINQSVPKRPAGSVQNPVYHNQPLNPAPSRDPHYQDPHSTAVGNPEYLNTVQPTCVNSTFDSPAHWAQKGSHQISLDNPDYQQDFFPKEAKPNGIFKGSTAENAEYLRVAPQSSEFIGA
Sequence of Del/T790M Ba/F3 cell line (P00533 with tags, fused parts or gaps DEL746-750/T790M): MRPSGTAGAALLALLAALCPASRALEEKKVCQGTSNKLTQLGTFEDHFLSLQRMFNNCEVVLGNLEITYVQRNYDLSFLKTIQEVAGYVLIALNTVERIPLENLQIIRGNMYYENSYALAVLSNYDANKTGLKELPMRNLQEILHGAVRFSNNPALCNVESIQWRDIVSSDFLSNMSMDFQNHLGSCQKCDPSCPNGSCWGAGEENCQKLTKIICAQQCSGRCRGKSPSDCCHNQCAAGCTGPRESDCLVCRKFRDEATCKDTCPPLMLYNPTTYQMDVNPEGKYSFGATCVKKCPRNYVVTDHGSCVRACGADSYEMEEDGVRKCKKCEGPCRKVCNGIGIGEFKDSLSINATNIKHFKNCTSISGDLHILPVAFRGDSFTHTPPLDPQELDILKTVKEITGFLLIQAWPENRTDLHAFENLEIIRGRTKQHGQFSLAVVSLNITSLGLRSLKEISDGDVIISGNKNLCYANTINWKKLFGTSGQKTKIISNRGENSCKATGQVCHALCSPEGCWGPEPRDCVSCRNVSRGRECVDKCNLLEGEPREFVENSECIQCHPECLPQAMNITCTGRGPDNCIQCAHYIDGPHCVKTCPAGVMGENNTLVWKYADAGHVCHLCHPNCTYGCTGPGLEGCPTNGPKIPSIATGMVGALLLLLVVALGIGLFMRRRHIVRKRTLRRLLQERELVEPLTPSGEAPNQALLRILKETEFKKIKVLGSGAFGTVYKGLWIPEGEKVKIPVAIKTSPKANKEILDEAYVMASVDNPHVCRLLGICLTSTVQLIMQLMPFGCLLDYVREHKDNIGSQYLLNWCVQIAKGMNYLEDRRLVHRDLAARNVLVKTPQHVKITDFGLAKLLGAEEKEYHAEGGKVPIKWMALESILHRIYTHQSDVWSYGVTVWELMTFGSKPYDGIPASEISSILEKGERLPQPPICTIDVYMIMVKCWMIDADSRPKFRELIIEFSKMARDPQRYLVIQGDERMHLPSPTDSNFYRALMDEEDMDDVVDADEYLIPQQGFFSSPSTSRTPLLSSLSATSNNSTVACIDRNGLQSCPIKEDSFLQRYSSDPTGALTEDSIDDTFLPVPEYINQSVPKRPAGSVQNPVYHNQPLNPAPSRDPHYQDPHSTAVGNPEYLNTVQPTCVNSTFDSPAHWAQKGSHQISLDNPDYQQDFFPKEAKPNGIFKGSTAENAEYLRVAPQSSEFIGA

GI50 [1, 4] [µM]	GI50 [1, 5] [µM]	GI50 [2, 6] [µM]	GI50 [2, 7] [µM]	SMILES	Activity (% inhibition) [1]	IC50 [3] [µM]
> 10	< 0.5	> 10	> 10	O=C(Nc1nccs1)[C@@H](c1ccccc1)N1Cc2ccc(-c3cnc4ccccc4c3)cc2C1=O [Compound I-70, (R)-2-(1-oxo-6-(quinolin-3-yl)isoindolin-2-yl)-2-phenyl-N-(thiazol-2-yl)acetamide]	D (a % inhibition of between about 0% to about 25%)	> 10
1 to 10	< 0.5	1 to 10	1 to 10	CN(C)CCNC(=O)c1ccc(-c2ccc3c(c2)C(=O)N([C@@H](C(=O)Nc2nccs2)c2ccccc2)C3)cc1 [Compound I-81, (R)-N-(2-(dimethylamino)ethyl)-4-(3-oxo-2-(2-oxo-1-phenyl-2-(thiazol-2-ylamino)ethyl)isoindolin-5-yl)benzamide]	D (a % inhibition of between about 0% to about 25%)	1 to 10
1 to 10	< 0.5	1 to 10	1 to 10	O=C(Nc1nccs1)[C@@H](c1ccccc1)N1Cc2ccc(-c3ccc(N4CCNCC4)cc3)cc2C1=O [Compound I-68, (R)-2-(1-oxo-6-(4-(piperazin-1-yl)phenyl)isoindolin-2-yl)-2-phenyl-N-(thiazol-2-yl)acetamide]	D (a % inhibition of between about 0% to about 25%)	1 to 10
1 to 10	< 0.5	> 10	1 to 10	O=C(Nc1nccs1)[C@@H](c1ccccc1)N1Cc2ccc(-c3ccc4[nH]ccc4c3)cc2C1=O [Compound I-66, (R)-2-(6-(1H-indol-5-yl)-1-oxoisoindolin-2-yl)-2-phenyl-N-(thiazol-2-yl)acetamide]	D (a % inhibition of between about 0% to about 25%)	> 10
1 to 10	< 0.5	> 10	> 10	O=C(Nc1nccs1)[C@H](c1ccccc1)N1Cc2ccc(-c3ccc4[nH]ccc4c3)cc2C1=O [Compound I-112, (S)-2-(6-(1H-indol-5-yl)-1-oxoisoindolin-2-yl)-2-phenyl-N-(thiazol-2-yl)acetamide]	D (a % inhibition of between about 0% to about 25%)	> 10
1 to 10	< 0.5	1 to 10	1 to 10	O=C(Nc1nccs1)[C@@H](c1ccccc1)N1Cc2ccc(-c3ccc(N4CCNCC4)cc3F)cc2C1=O [Compound I-120, (R)-2-(6-(2-fluoro-4-(piperazin-1-yl)phenyl)-1-oxoisoindolin-2-yl)-2-phenyl-N-(thiazol-2-yl)acetamide]	D (a % inhibition of between about 0% to about 25%)	1 to 10
> 10	< 0.5	> 10	> 10	CC(C)(C)OC(=O)N1CCN(c2ccc(-c3ccc4c(c3)C(=O)N([C@@H](C(=O)Nc3nccs3)c3ccccc3)C4)c(F)c2)CC1 [Compound I-119, tert-butyl (R)-4-(3-fluoro-4-(3-oxo-2-(2-oxo-1-phenyl-2-(thiazol-2-ylamino)ethyl)isoindolin-5-yl)phenyl)piperazine-1-carboxylate]	D (a % inhibition of between about 0% to about 25%)	> 10
> 10	< 0.5	> 10	> 10	O=C(Nc1nccs1)[C@H](c1ccccc1)N1Cc2ccc(-c3ccccc3F)cc2C1=O [Compound I-113, (S)-2-(6-(2-fluorophenyl)-1-oxoisoindolin-2-yl)-2-phenyl-N-(thiazol-2-yl)acetamide]	C (a % inhibition of between about 25% to about 50%)	> 10
> 10	< 0.5	1 to 10	1 to 10	O=C(Nc1nccs1)[C@@H](c1ccccc1)N1Cc2ccc(-c3ccccc3F)cc2C1=O [Compound I-75, (R)-2-(6-(2-fluorophenyl)-1-oxoisoindolin-2-yl)-2-phenyl-N-(thiazol-2-yl)acetamide]	D (a % inhibition of between about 0% to about 25%)	> 10
1 to 10	< 0.5	1 to 10	1 to 10	O=C(Nc1nccs1)[C@H](c1ccccc1)N1Cc2ccc(-c3ccc(N4CCNCC4)cc3)cc2C1=O [Compound I-115, (S)-2-(1-oxo-6-(4-(piperazin-1-yl)phenyl)isoindolin-2-yl)-2-phenyl-N-(thiazol-2-yl)acetamide]	D (a % inhibition of between about 0% to about 25%)	1 to 10
1 to 10	< 0.5	> 10	> 10	O=C(Nc1nccs1)C(c1cccc(F)c1)N1Cc2ccc(-c3ccc4[nH]ccc4c3)cc2C1=O (stereo not drawn) [Compound I-122, 2-(6-(1H-indol-5-yl)-1-oxoisoindolin-2-yl)-2-(3-fluorophenyl)-N-(thiazol-2-yl)acetamide]	D (a % inhibition of between about 0% to about 25%)	1 to 10
> 10	< 0.5	> 10	> 10	O=C(Nc1nccs1)[C@@H](c1ccccc1)N1Cc2ccc(-c3ccc4c(c3)OCCO4)cc2C1=O [Compound I-65, (R)-2-(6-(2,3-dihydrobenzo[b] [1,4]dioxin-6-yl)-1-oxoisoindolin-2-yl)-2-phenyl-N-(thiazol-2-yl)acetamide]	D (a % inhibition of between about 0% to about 25%)	> 10
1 to 10	< 0.5	1 to 10	1 to 10	O=C(Nc1nccs1)[C@@H](c1ccccc1)N1Cc2ccc(-c3ccc(CN4CCNCC4)cc3)cc2C1=O [Compound I-121, (R)-2-(1-oxo-6-(4-(piperazin-1-ylmethyl)phenyl)isoindolin-2-yl)-2-phenyl-N-(thiazol-2-yl)acetamide]	D (a % inhibition of between about 0% to about 25%)	1 to 10
> 10	< 0.5	> 10	> 10	COc1cc(OC)cc(-c2ccc3c(c2)C(=O)N([C@@H](C(=O)Nc2nccs2)c2ccccc2)C3)c1 [Compound I-79, (R)-2-(6-(3,5-dimethoxyphenyl)-1-oxoisoindolin-2-yl)-2-phenyl-N-(thiazol-2-yl)acetamide]	D (a % inhibition of between about 0% to about 25%)	> 10
1 to 10	< 0.5	1 to 10	1 to 10	CN1CCN(c2ccc(-c3ccc4c(c3)C(=O)N([C@@H](C(=O)Nc3nccs3)c3ccccc3)C4)cc2)CC1 [Compound I-69, (R)-2-(6-(4-(4-methylpiperazin-1-yl)phenyl)-1-oxoisoindolin-2-yl)-2-phenyl-N-(thiazol-2-yl) acetamide]	D (a % inhibition of between about 0% to about 25%)	1 to 10
